Laboratory results as given in the supplement of paper PMC11061612.

What was measured:
[1] = test system: 22RV1 (Prostate Carcinoma); experiment: combination Emax (second highest fraction inhibited in the dose matrix, 72 h); higher = more inhibition; extreme values may be limits of the assay
Method in brief: (§1)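 Bliss excess equals the observed combination effect minus the expected value EA + EB − EA·EB, where EA and EB are the effects of each agent alone. Combination Emax is the second-highest inhibition within the matrix. Inhibition was scaled from CellTiter-Glo 2.0 luminescence, with 0 set by vehicle wells and 1 by blank wells, after 72 hours of two-drug dosing of cells plated in 1536-well plates.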

[2] = test system: JHU-022 (Oral Cavity Carcinoma); experiment: as above
Method in brief: as §1

HCC70 (Breast Carcinoma) [3] = experiment: as above
Method in brief: as §1

[4] = test system: SW620 (Colorectal Carcinoma); experiment: Bliss excess, mean over the matrix (fraction); higher = more synergy
Method in brief: as §1

[5] = test system: LU-165 (Small Cell Lung Carcinoma); experiment: as above
Method in brief: as §1

[6] = test system: MDA-MB-436 (Breast Carcinoma); experiment: as above
Method in brief: as §1

[7] = test system: JHH-2 (Hepatocellular Carcinoma); experiment: as above
Method in brief: as §1

[8] = test system: NCI-H1651 (Lung Adenocarcinoma); experiment: as above
Method in brief: as §1

WM1552C (Melanoma) = experiment: as above
Method in brief: as §1

[9] = test system: HCC1395 (Breast Carcinoma); experiment: as above
Method in brief: as §1

[10] = test system: 22RV1 (Prostate Carcinoma); experiment: as above
Method in brief: as §1

[11] = test system: NCI-H441 (Lung Adenocarcinoma); experiment: as above
Method in brief: as §1

PEO1 (Ovarian Carcinoma) = experiment: as above
Method in brief: as §1

[12] = test system: SK-HEP-1 (Hepatocellular Carcinoma); experiment: as above
Method in brief: as §1

[13] = test system: KYSE-220 (Esophageal Squamous Cell Carcinoma); experiment: as above
Method in brief: as §1

[14] = test system: JHU-022 (Oral Cavity Carcinoma); experiment: as above
Method in brief: as §1

EB2 (Burkitt's Lymphoma) = experiment: as above
Method in brief: as §1

HCC70 (Breast Carcinoma) [15] = experiment: as above
Method in brief: as §1

[16] = test system: UACC-812 (Breast Carcinoma); experiment: as above
Method in brief: as §1

[17] = test system: MHH-ES-1 (Ewing's Sarcoma); experiment: as above
Method in brief: as §1

For `CN(CCO)CC[C@H](CSc1ccccc1)Nc1ccc(S(=O)(=O)NC(=O)c2ccc(N3CCC([C@@H](O)c4ccccc4-c4ccc(Cl)cc4)CC3)cc2)cc1S(=O)(=O)C(F)(F)F` [AZD4320] + CCN(CCO)CCCOc1ccc2c(Nc3cc(CC(=O)Nc4cccc(F)c4)[nH]n3)ncnc2c1 [AZD2811] (first compound max 1 µM, 7x7, partner max 1 µM), the “combination Emax” value [1] was 0.259, the “combination Emax” value [2] was 0.315 and the “combination Emax” value (HCC70 (Breast Carcinoma) [3]) was 0.66. For the same molecule, the Bliss excess [4] was 0.0931, the Bliss excess [5] was -0.0081 and the Bliss excess [6] was -0.0619. It also gave a Bliss excess [7] of -0.0489, a Bliss excess [8] of -0.0013 and a Bliss excess (WM1552C (Melanoma)) of -0.0152. For the same molecule, the Bliss excess [9] was 0.0121, the Bliss excess [10] was -0.0342 and the Bliss excess [11] was -0.0407. It also gave a Bliss excess (PEO1 (Ovarian Carcinoma)) of -0.0249, a Bliss excess [12] of 0.0932 and a Bliss excess [13] of 0.0129. For the same molecule, the Bliss excess [14] was -0.0183, the Bliss excess (EB2 (Burkitt's Lymphoma)) was 0.0254 and the Bliss excess (HCC70 (Breast Carcinoma) [15]) was 0.0345. The Bliss excess [16] was -0.0194 and the Bliss excess [17] was 0.14.
In the case of `Cc1cc2ncnn2cc1Nc1ncc2c(n1)n(C1CCOCC1)c(=O)n2C` [AZD7648] + O=C(c1cc(Cc2n[nH]c(=O)c3ccccc23)ccc1F)N1CCN(C(=O)C2CC2)CC1 [Olaparib] (first compound max 10 µM, 7x7, partner max 10 µM), the “combination Emax” value [1] is reported as 0.346, the “combination Emax” value [2] is reported as 0.172 and the “combination Emax” value (HCC70 (Breast Carcinoma) [3]) is reported as 0.178. For the same molecule, the Bliss excess [4] was -0.0305, the Bliss excess [5] was -0.102 and the Bliss excess [6] was -0.0522. It also gave a Bliss excess [7] of -0.0099, a Bliss excess [8] of -0.0356 and a Bliss excess (WM1552C (Melanoma)) of -0.0418. For the same molecule, the Bliss excess [9] was -0.0871, the Bliss excess [10] was -0.0832 and the Bliss excess [11] was -0.0555. For the same molecule, the Bliss excess (PEO1 (Ovarian Carcinoma)) was -0.0374, the Bliss excess [12] was -0.0428 and the Bliss excess [13] was -0.0372. For the same molecule, the Bliss excess [14] was -0.0682, the Bliss excess (EB2 (Burkitt's Lymphoma)) was 0.0055 and the Bliss excess (HCC70 (Breast Carcinoma) [15]) was -0.0292. The Bliss excess [16] was -0.0119 and the Bliss excess [17] was -0.0218.
With `N#Cc1cnc(Nc2cc(NC[C@H]3CNCCO3)c(C(F)(F)F)cn2)cn1` [SRA737] + CCc1c2c(nc3ccc(O)cc13)-c1cc3c(c(=O)n1C2)COC(=O)[C@]3(O)CC [SN-38] (first compound max 10 µM, 7x7, partner max 0.3 µM) the “combination Emax” value [1] was 0.685, the “combination Emax” value [2] was 0.759 and the “combination Emax” value (HCC70 (Breast Carcinoma) [3]) was 0.674. For the same molecule, the Bliss excess [4] was 0.0405, the Bliss excess [5] was -0.0704 and the Bliss excess [6] was -0.031. For the same molecule, the Bliss excess [7] was 0.0131, the Bliss excess [8] was -0.0101 and the Bliss excess (WM1552C (Melanoma)) was -0.0777. It also gave a Bliss excess [9] of -0.0012, a Bliss excess [10] of -0.0792 and a Bliss excess [11] of -0.0258. The Bliss excess (PEO1 (Ovarian Carcinoma)) was -0.0697, the Bliss excess [12] was -0.0793 and the Bliss excess [13] was 0.0163. For the same molecule, the Bliss excess [14] was -0.0966, the Bliss excess (EB2 (Burkitt's Lymphoma)) was -0.0723 and the Bliss excess (HCC70 (Breast Carcinoma) [15]) was -0.0249. For the same molecule, the Bliss excess [16] was -0.0309 and the Bliss excess [17] was -0.0259.
In the case of `COc1cc2c(cc1OCCCCCOc1cc3c(cc1OC)C(=O)N1C=C(C)C[C@H]1C=N3)N=C[C@@H]1CC(C)=CN1C2=O` [SG3199] + O=C(c1cc(Cc2n[nH]c(=O)c3ccccc23)ccc1F)N1CCN(C(=O)C2CC2)CC1 [Olaparib] (first compound max 0.001 µM, 7x7, partner max 10 µM), the “combination Emax” value [1] is reported as 0.095, the “combination Emax” value [2] is reported as 0.0543 and the “combination Emax” value (HCC70 (Breast Carcinoma) [3]) is reported as 0.129. It also gave a Bliss excess [4] of -0.0303, a Bliss excess [5] of -0.0532 and a Bliss excess [6] of -0.0412. For the same molecule, the Bliss excess [7] was -0.0244, the Bliss excess [8] was -0.0788 and the Bliss excess (WM1552C (Melanoma)) was -0.0462. For the same molecule, the Bliss excess [9] was -0.0449, the Bliss excess [10] was -0.0421 and the Bliss excess [11] was -0.0871. It also gave a Bliss excess (PEO1 (Ovarian Carcinoma)) of -0.0397, a Bliss excess [12] of -0.0582 and a Bliss excess [13] of -0.0151. It also gave a Bliss excess [14] of -0.0479, a Bliss excess (EB2 (Burkitt's Lymphoma)) of -0.0259 and a Bliss excess (HCC70 (Breast Carcinoma) [15]) of -0.0252. It also gave a Bliss excess [16] of -0.0377 and a Bliss excess [17] of -0.0454.
`CN(CCO)CC[C@H](CSc1ccccc1)Nc1ccc(S(=O)(=O)NC(=O)c2ccc(N3CCC([C@@H](O)c4ccccc4-c4ccc(Cl)cc4)CC3)cc2)cc1S(=O)(=O)C(F)(F)F` [AZD4320] + C1CN(CCC1(C(=O)N[C@@H](CCO)C2=CC=C(C=C2)Cl)N)C3=NC=NC4=C3C=CN4 [Capivasertib] (first compound max 1 µM, 7x7, partner max 3 µM) was tested, and the “combination Emax” value [1] was 0.471, the “combination Emax” value [2] was 0.308 and the “combination Emax” value (HCC70 (Breast Carcinoma) [3]) was 0.813. For the same molecule, the Bliss excess [4] was -0.0498, the Bliss excess [5] was -0.042 and the Bliss excess [6] was -0.0329. For the same molecule, the Bliss excess [7] was -0.0031, the Bliss excess [8] was -0.0005 and the Bliss excess (WM1552C (Melanoma)) was -0.0419. It also gave a Bliss excess [9] of -0.0479, a Bliss excess [10] of -0.0486 and a Bliss excess [11] of -0.0503. It also gave a Bliss excess (PEO1 (Ovarian Carcinoma)) of -0.0691, a Bliss excess [12] of -0.0545 and a Bliss excess [13] of -0.0056. The Bliss excess [14] was -0.0491, the Bliss excess (EB2 (Burkitt's Lymphoma)) was 0.0549 and the Bliss excess (HCC70 (Breast Carcinoma) [15]) was 0.0327. The Bliss excess [16] was -0.0135 and the Bliss excess [17] was -0.0261.
`C[C@@H](c1ccc2nccn2c1)n1nnc2ncc(-c3cnn(C)c3)nc21` [Savolitinib] + CC1(C)CCC(CN2CCN(c3ccc(C(=O)NS(=O)(=O)c4ccc(NCC5CCOCC5)c([N+](=O)[O-])c4)c(Oc4cnc5[nH]ccc5c4)c3)CC2)=C(c2ccc(Cl)cc2)C1 [Venetoclax] (first compound max 1 µM, 7x7, partner max 1 µM) was tested, and the “combination Emax” value [1] was 0.214, the “combination Emax” value [2] was 0.257 and the “combination Emax” value (HCC70 (Breast Carcinoma) [3]) was 0.165. The Bliss excess [4] was -0.0727, the Bliss excess [5] was -0.0126 and the Bliss excess [6] was -0.0228. For the same molecule, the Bliss excess [7] was -0.0705, the Bliss excess [8] was -0.0356 and the Bliss excess (WM1552C (Melanoma)) was -0.0623. For the same molecule, the Bliss excess [9] was -0.0095, the Bliss excess [10] was -0.0952 and the Bliss excess [11] was -0.029. It also gave a Bliss excess (PEO1 (Ovarian Carcinoma)) of -0.0441, a Bliss excess [12] of -0.0267 and a Bliss excess [13] of -0.0573. It also gave a Bliss excess [14] of -0.0621, a Bliss excess (EB2 (Burkitt's Lymphoma)) of -0.0391 and a Bliss excess (HCC70 (Breast Carcinoma) [15]) of -0.0361. It also gave a Bliss excess [16] of -0.043 and a Bliss excess [17] of -0.031.
With `N#Cc1cnc(Nc2cc(NC[C@H]3CNCCO3)c(C(F)(F)F)cn2)cn1` [SRA737] + C=CCn1c(=O)c2cnc(Nc3ccc(N4CCN(C)CC4)cc3)nc2n1-c1cccc(C(C)(C)O)n1 [AZD1775] (first compound max 10 µM, partner max 1 µM) the “combination Emax” value [1] was 0.516, the “combination Emax” value [2] was 0.528 and the “combination Emax” value (HCC70 (Breast Carcinoma) [3]) was 0.848. The Bliss excess [4] was -0.0272, the Bliss excess [5] was 0.0319 and the Bliss excess [6] was -0.0132. The Bliss excess [7] was -0.008, the Bliss excess [8] was 0.0846 and the Bliss excess (WM1552C (Melanoma)) was -0.0052. It also gave a Bliss excess [9] of 0.0559, a Bliss excess [10] of 0.0367 and a Bliss excess [11] of -0.0403. The Bliss excess (PEO1 (Ovarian Carcinoma)) was -0.0117, the Bliss excess [12] was -0.0452 and the Bliss excess [13] was 0.0983. The Bliss excess [14] was -0.0533, the Bliss excess (EB2 (Burkitt's Lymphoma)) was 0.0335 and the Bliss excess (HCC70 (Breast Carcinoma) [15]) was 0.0276. For the same molecule, the Bliss excess [16] was 0.0343 and the Bliss excess [17] was 0.0231.
